Our source for the EC50 values is patent US7807676B2, “Diketo-Piperazine and Piperidine derivatives as antiviral agents” (priority 2006, dated 2010).

The test deals with HIV-1 single-round infectious reporter virus. The test is described as follows: Single-round infectious HIV-1 luciferase reporter virus infection of HeLa CD4 cells (antiviral EC50). The conditions noted are these: Human immunodeficiency virus 1, HeLa, read-out: EC50 Group from Table 3. Type of test: cell-based. In a few lines:
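Env-pseudotyped single-round HIV-1 reporter virus (env-deleted provirus with luciferase in place of nef, made in 293 cells) infected HeLa CD4 cells at MOI ~0.01 with compound present, up to 10 μM final. Luciferase luminescence read after 72 h at 37 °C; EC50 from four-parameter logistic fit of % inhibition over 10 concentrations.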
In general terms: A reporter such as luciferase makes a cellular process visible.

Where a name gives a salt, the structure may show the parent alone.

`O=C(NCCO)c1cc(-c2ncc(F)c3c(C(=O)C(=O)N4CCN(c5c[nH]nc5-c5ccccc5)CC4)c[nH]c23)n[nH]1` [B-52]: the EC50 is less than 500 nM.
For `C/C(=N\O)c1ncc(F)c2c(C(=O)C(=O)N3CCN(c4nnnn4-c4ccccc4)CC3)c[nH]c12` [B-49], the EC50 was less than 500 nM.
Take `CC(=O)Nc1ncc(F)c2c(C(=O)C(=O)N3CCN(c4nnnn4-c4ccccc4)CC3)c[nH]c12` [B-18, N-(4-fluoro-3-(2-oxo-2-(4-(1-phenyl-1H-tetrazol-5-yl)piperazin-1-yl)acetyl)-1H-pyrrolo[2,3-c]pyridin-7-yl)acetamide]: the EC50 is greater than 500 nM.
In the case of `O=C(C(=O)N1CCN(c2nnnn2-c2ccccc2)CC1)c1c[nH]c2c(-c3ccn(CCN4CCOCC4)n3)ncc(F)c12` [B-31], the EC50 is less than 500 nM.
Take `COc1cnc(-c2cc(C(=O)O)[nH]n2)c2[nH]cc(C(=O)C(=O)N3CCN(c4nnnn4-c4ccccc4)CC3)c12` [B-21, 3-(4-methoxy-3-(2-oxo-2-(4-(1-phenyl-1H-tetrazol-5-yl)piperazin-1-yl)acetyl)-1H-pyrrolo[2,3-c]pyridin-7-yl)-1H-pyrazole-5-carboxylic acid]: the EC50 was less than 500 nM.
Take `COc1cnc(-n2cnc(C)n2)c2[nH]cc(C(=O)C(=O)N3CCN(c4nnnn4-c4nccs4)CC3)c12` [E-5]: the EC50 is less than 500 nM.
To `O=C(NCCN1CCCC1)c1cc(-c2ncc(F)c3c(C(=O)C(=O)N4CCN(c5nnnn5-c5ccccc5)CC4)c[nH]c23)n[nH]1` [B-40] belongs less than 500 nM; to `COc1cnc(-n2cnc(C)n2)c2[nH]cc(C(=O)C(=O)N3CCN(c4ncnc5cc(-c6ccccc6)sc45)C[C@H]3C)c12` [D-11], greater than 500 nM; to `O=C(C(=O)N1CCN(c2cnnn2-c2ccccc2)CC1)c1c[nH]c2c(-n3ccnn3)ncc(F)c12` [G-30a], less than 500 nM.
As for `O=C(C(=O)N1CCN(c2nnc(O)n2-c2ccccc2)CC1)c1c[nH]c2c(-n3ccnn3)ncc(F)c12` [A-22], the EC50 is less than 500 nM.
As for `COc1cnc(-n2cnc(C)n2)c2[nH]cc(C(=O)C(=O)N3CCN(c4cc(N(C)C)nnc4-c4ccccc4)CC3)c12` [G-14b], the EC50 was less than 500 nM.
Consider `CN(C)CCNc1ccn(-c2ncc(F)c3c(C(=O)C(=O)N4CCN(c5nnnn5-c5ccccc5)CC4)c[nH]c23)n1` [B-23, 1-(7-(3-(2-(dimethylamino)ethylamino)-1H-pyrazol-1-yl)-4-fluoro-1H-pyrrolo[2,3-c]pyridin-3-yl)-2-(4-(1-phenyl-1H-tetrazol-5-yl)piperazin-1-yl)ethane-1,2-dione TFA], for which the EC50 is less than 500 nM.
`COc1cnc(-c2cccnc2)c2[nH]cc(C(=O)C(=O)N3CCN(c4nnnn4-c4ccccn4)CC3)c12` [H-3]: the half-maximal effective concentration (EC50) was less than 500 nM.
In the case of `O=C(NCCCN1CCCC1=O)c1cc(-c2ncc(F)c3c(C(=O)C(=O)N4CCN(c5nnnn5-c5ccccc5)CC4)c[nH]c23)n[nH]1` [F-12], the EC50 was less than 500 nM.

The EC50 is the concentration that produces a half-maximal response.
